Measurements as given in patent publication US10407407B2, “Benzoimidazole derivatives as PAD4 inhibitors” (GLAXOSMITHKLINE INTELLECTUAL PROPERTY DEVELOPMENT LIMITED, priority 2015, dated 2019).

Biological target: T1, Recombinant human PAD2 (residues 1-665) (Homo sapiens, UniProt Q9Y2J8)
T1 construct: Recombinant human PAD2 (residues 1-665) was expressed in baculovirus-infected Sf9 insect cells; 6His-FLAG (N); made in house; host or cells: baculovirus-infected Sf9 insect cells
Assay: PAD2 enzyme assay (FLINT NH3 release, BAEE substrate)
Format: biochemical
Settings: PAD2 enzyme assay above or similar assays; to assess selectivity for PAD4 over PAD2; read-out: mean pIC50 (converted)
Description: Activity of the final product was determined using a FLINT NH3 release assay.
8 μl of PAD2 enzyme diluted to an assay concentration of 30 nM in assay buffer (100 mM HEPES, 50 mM NaCl, 2 mM DTT, 7.5% glycerol and 1.5 mM CHAPS pH 8), and added to wells containing 0.1 μl of various concentrations of compound or DMSO vehicle (0.8% final) in a Greiner high volume 384 well black plate. […] The reaction was stopped after 90 mins with the addition of […] stop/detection buffer containing 50 mM EDTA, 2.6 mM phthalaldehyde and 2.6 mM DTT.

T1 sequence (Q9Y2J8 whole entry, the tested form may be a part): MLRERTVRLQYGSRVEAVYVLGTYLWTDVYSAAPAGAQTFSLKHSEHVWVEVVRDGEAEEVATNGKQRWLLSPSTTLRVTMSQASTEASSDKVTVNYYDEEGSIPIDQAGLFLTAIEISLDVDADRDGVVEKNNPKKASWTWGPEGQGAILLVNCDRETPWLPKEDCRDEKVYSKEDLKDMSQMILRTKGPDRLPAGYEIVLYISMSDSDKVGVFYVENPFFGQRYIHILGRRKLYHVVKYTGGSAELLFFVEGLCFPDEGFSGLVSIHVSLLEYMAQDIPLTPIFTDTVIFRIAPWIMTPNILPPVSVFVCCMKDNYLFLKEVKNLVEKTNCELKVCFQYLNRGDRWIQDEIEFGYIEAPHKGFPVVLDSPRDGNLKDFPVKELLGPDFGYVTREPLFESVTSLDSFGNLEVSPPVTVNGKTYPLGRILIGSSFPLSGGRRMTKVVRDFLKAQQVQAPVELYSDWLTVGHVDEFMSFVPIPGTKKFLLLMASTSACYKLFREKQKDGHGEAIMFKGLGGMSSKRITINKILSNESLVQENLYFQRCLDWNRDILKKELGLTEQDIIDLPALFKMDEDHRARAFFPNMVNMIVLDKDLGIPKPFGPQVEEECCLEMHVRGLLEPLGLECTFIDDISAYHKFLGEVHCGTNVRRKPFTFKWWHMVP

SMILES	IC50 [µM]
CCn1c(-c2nc3cc(C(=O)N4CC[C@H](OC)[C@@H](N)C4)ccc3n2C)cc2ccccc21 (racemic) [Example 51, (+/−)-((trans)-3-Amino-4-methoxypiperidin-1-yl)(2-(1-ethyl-1H-indol-2-yl)-1-methyl-1H-benzo[d]imidazol-5-yl)methanone]	> 79.4
CCn1c(-c2nc3cc(C(=O)N4C[C@@H](N)CC[C@H]4C)ccc3n2C)cc2ccccc21 (single isomer, unassigned) [Example 54, cis-(5-Amino-2-methylpiperidin-1-yl)(2-(1-ethyl-1H-indol-2-yl)-1-methyl-1H-benzo[d]imidazol-5-yl)methanone]	> 79.4
CCn1c(-c2nc3cc(C(=O)N4C[C@H](C)C[C@H](N)C4)ccc3n2C)cc2ccccc21 (single isomer, unassigned) [Example 124, cis-(3-Amino-5-methylpiperidin-1-yl)(2-(1-ethyl-1H-indol-2-yl)-1-methyl-1H-benzo[d]imidazol-5-yl)methanone]	> 79.4
CCn1c(-c2nc3cc(C(=O)N4CCC[C@@H](N)C4)ccc3n2C)cc2ccccc21 [Example 1a]	≥ 10
CCn1c(-c2nc3cc(C(=O)N4CCC[C@@H](N)C4)ccc3n2C)cc2cccc(OC)c21 [Example 2, (3R)-1-({2-[1-ethyl-7-(methyloxy)-1H-indol-2-yl]-1-methyl-1H-benzimidazol-5-yl}carbonyl)-3-piperidinamine]	≥ 10
CC(C)n1c(-c2nc3cc(C(=O)N4CCC[C@@H](N)C4)ccc3n2C)cc2ccccc21 [Example 12, (3R)-1-({1-Methyl-2-[1-(1-methylethyl)-1H-indol-2-yl]-1H-benzimidazol-5-yl}carbonyl)-3-piperidinamine]	≥ 10
Cn1c(-c2cc3ccccc3n2CC2CC2)nc2cc(C(=O)N3CCC[C@@H](N)C3)ccc21 [Example 16, (3R)-1-({2-[1-(Cyclopropylmethyl)-1H-indol-2-yl]-1-methyl-1H-benzimidazol-5-yl}carbonyl)-3-piperidinamine]	≥ 10
Cn1c(-c2cc3ccccc3[nH]2)nc2cc(C(=O)N3CCC[C@@H](N)C3)ccc21 [Example 18, (3R)-1-{[2-(1H-Indol-2-yl)-1-methyl-1H-benzimidazol-5-yl]carbonyl}-3-piperidinamine]	≥ 10
CC(C)Cn1c(-c2nc3cc(C(=O)N4CCC[C@@H](N)C4)ccc3n2C)cc2ccccc21 [Example 19, (3R)-1-({1-Methyl-2-[1-(2-methylpropyl)-1H-indol-2-yl]-1H-benzimidazol-5-yl}carbonyl)-3-piperidinamine]	≥ 10
Cn1cc(Cn2c(-c3nc4cc(C(=O)N5CCC[C@@H](N)C5)ccc4n3C)cc3ccccc32)cn1 [Example 20a, (3R)-1-[(1-methyl-2-{1-[(1-methyl-1H-pyrazol-4-yl)methyl]-1H-indol-2-yl}-1H-benzimidazol-5-yl)carbonyl]-3-piperidinamine]	≥ 10
COCCn1c(-c2nc3cc(C(=O)N4CCC[C@@H](N)C4)ccc3n2C)cc2ccccc21 [Example 22, (3R)-1-[(1-methyl-2-{1-[2-(methyloxy)ethyl]-1H-indol-2-yl}-1H-benzimidazol-5-yl)carbonyl]-3-piperidinamine]	> 79.4
Cn1c(-c2cc3ccccc3n2CCO)nc2cc(C(=O)N3CCC[C@@H](N)C3)ccc21 [Example 29, 2-[2-(5-{[(3R)-3-Amino-1-piperidinyl]carbonyl}-1-methyl-1H-benzimidazol-2-yl)-1H-indol-1-yl]ethanol]	> 79.4
CCOc1ccc2cc(-c3nc4cc(C(=O)N5CCC[C@@H](N)C5)ccc4n3C)n(CC)c2c1 [Example 32, (R)-(3-Aminopiperidin-1-yl)(2-(6-ethoxy-1-ethyl-1H-indol-2-yl)-1-methyl-1H-benzo[d]imidazol-5-yl)methanone]	≥ 10
CCn1c(-c2nc3cc(C(=O)N4CCC[C@@H](N)C4)cc(OC(F)(F)F)c3n2C)cc2ccccc21 [Example 34, (R)-(3-Aminopiperidin-1-yl)(2-(1-ethyl-1H-indol-2-yl)-1-methyl-7-(trifluoromethoxy)-1H-benzo[d]imidazol-5-yl)methanone]	≥ 10
Cn1c(-c2nc3cc(C(=O)N4CCC[C@@H](N)C4)ccc3n2C)cc2ccccc21 [Example 37, (R)-(3-Aminopiperidin-1-yl)(1-methyl-2-(1-methyl-1H-indol-2-yl)-1H-benzo[d]imidazol-5-yl)methanone]	> 79.4
CCn1c(-c2nc3cc(C(=O)N4CCC[C@@H](N)C4)ccc3n2CCN)cc2ccccc21 [Example 48, (R)-(1-(2-Aminoethyl)-2-(1-ethyl-1H-indol-2-yl)-1H-benzo[d]imidazol-5-yl)(3-aminopiperidin-1-yl)methanone]	≥ 10
COc1cc(C(=O)N2CC[C@@H](O)[C@@H](N)C2)cc2nc(-c3cc4ccccc4n3CC(F)(F)F)n(C)c12 [Example 58a, ((3S,4R)-3-Amino-4-hydroxypiperidin-1-yl)(7-methoxy-1-methyl-2-(1-(2,2,2-trifluoroethyl)-1H-indol-2-yl)-1H-benzo[d]imidazol-5-yl)methanone]	≥ 10
COc1cc(C(=O)N2CC[C@H](O)[C@H](N)C2)cc2nc(-c3cc4ccccc4n3CC(F)(F)F)n(C)c12 [Example 59, ((3R,4S)-3-Amino-4-hydroxypiperidin-1-yl)(7-methoxy-1-methyl-2-(1-(2,2,2-trifluoroethyl)-1H-indol-2-yl)-1H-benzo[d]imidazol-5-yl)methanone]	≥ 10
CCn1c(-c2nc3cc(C(=O)N4CCC[C@@H](N)C4)cc(N(C)C)c3n2C)cc2ccccc21 [Example 63, (R)-(3-Aminopiperidin-1-yl)(7-(dimethylamino)-2-(1-ethyl-1H-indol-2-yl)-1-methyl-1H-benzo[d]imidazol-5-yl)methanone]	> 79.4
CCn1c(-c2nc3cc(C(=O)N4CC[C@@H](O)[C@@H](N)C4)cc(OC)c3n2C)cc2ccccc21 [Example 67, ((3S,4R)-3-Amino-4-hydroxypiperidin-1-yl)(2-(1-ethyl-1H-indol-2-yl)-7-methoxy-1-methyl-1H-benzo[d]imidazol-5-yl)methanone]	> 79.4
CCn1c(-c2nc3cc(C(=O)N4CCC[C@@H](N)C4)cc(NC)c3n2C)cc2ccccc21 [Example 68, (R)-(3-Aminopiperidin-1-yl)(2-(1-ethyl-1H-indol-2-yl)-1-methyl-7-(methylamino)-1H-benzo[d]imidazol-5-yl)methanone]	> 79.4
COc1cc(C(=O)N2CCC[C@@H](N)C2)cc2nc(-c3cc4ccccc4n3CC3CCOCC3)n(C)c12 [Example 70, (R)-(3-Aminopiperidin-1-yl)(7-methoxy-1-methyl-2-(1-((tetrahydro-2H-pyran-4-yl)methyl)-1H-indol-2-yl)-1H-benzo[d]imidazol-5-yl)methanone]	> 79.4
COc1cc(C(=O)N2CCC[C@@H](N)C2)cc2nc(-c3cc4ccccc4n3CC#N)n(C)c12 [Example 74, (R)-2-(2-(5-(3-Aminopiperidine-1-carbonyl)-7-methoxy-1-methyl-1H-benzo[d]imidazol-2-yl)-1H-indol-1-yl)acetonitrile]	≥ 10
CCc1cc(C(=O)N2CCC[C@@H](N)C2)cc2nc(-c3cc4ccccc4n3CC)n(C)c12 [Example 75, (R)-(3-Aminopiperidin-1-yl)(7-ethyl-2-(1-ethyl-1H-indol-2-yl)-1-methyl-1H-benzo[d]imidazol-5-yl)methanone]	≥ 10
CCn1c(-c2nc3cc(C(=O)N4CCC[C@@H](N)C4)ccc3n2CC)cc2ccccc21 [Example 95, (R)-(3-Aminopiperidin-1-yl)(1-ethyl-2-(1-ethyl-1H-indol-2-yl)-1H-benzo[d]imidazol-5-yl)methanone]	> 79.4
CCn1c(-c2nc3cc(C(=O)N4CCC[C@@H](N)C4)cnc3n2C)cc2ccccc21 [Example 96, (R)-(3-Aminopiperidin-1-yl)(2-(1-ethyl-1H-indol-2-yl)-3-methyl-3H-imidazo[4,5-b]pyridin-6-yl)methanone]	> 79.4
CCn1c(-c2nc3cc(C(=O)N4CCC[C@@H](N)C4)cc(OCCOC)c3n2C)cc2ccccc21 [Example 111, (R)-(3-Aminopiperidin-1-yl)(2-(1-ethyl-1H-indol-2-yl)-7-(2-methoxyethoxy)-1-methyl-1H-benzo[d]imidazol-5-yl)methanone]	≥ 10
CCn1c(-c2nc3cc(C(=O)N4CCC[C@@H](N)C4)cc(OCC#N)c3n2C)cc2ccccc21 [Example 113, (R)-2-((5-(3-Aminopiperidine-1-carbonyl)-2-(1-ethyl-1H-indol-2-yl)-1-methyl-1H-benzo[d]imidazol-7-yl)oxy)acetonitrile]	≥ 10
CCn1c(-c2nc3cc(C(=O)N4CCC[C@@H](N)C4)cc(OCC(N)=O)c3n2C)cc2ccccc21 [Example 114, (R)-2-((5-(3-Aminopiperidine-1-carbonyl)-2-(1-ethyl-1H-indol-2-yl)-1-methyl-1H-benzo[d]imidazol-7-yl)oxy)acetamide]	> 79.4
CCn1c(-c2nc3cc(C(=S)N4CCC[C@@H](N)C4)ccc3n2C)cc2ccccc21 [Example 135, (R)-(3-Aminopiperidin-1-yl)(2-(1-ethyl-1H-indol-2-yl)-1-methyl-1H-benzo[d]imidazol-5-yl)methanethione]	≥ 10
